Data: patent US20110104074A1, “METHODS FOR TARGETED CANCER TREATMENT AND DETECTION” (UNIVERSITY OF LOUISVILLE RESEARCH FOUNDATION, INC., priority 2008, published 2011)
Ends that are not written are not given here.

Assays:
[1] = tested on: ovarian epithelial tumor cells lines (A2780, CAOV3, and UCI), and a cisplatin-resistant cell line (A2780/CP70); test: Cell viability (MTT, 96-titer kit) in ovarian tumor cell lines; conditions: concentrations from 1 to 5 nM; cisplatin-sensitive and cisplatin-resistant cell lines
[2] = biological target: T1, LHRH receptor (Mus musculus, UniProt Q01776); test: pCRE-luciferase reporter assay in LβT2 cells for binding to cell surface LHRH receptors; format: cell-based; conditions: 6 hrs treatment, read-out: binding affinities (IC50 values)
T1 construct: endogenous in cells; host or cells: LβT2 mouse gonadotrope tumor cell line
T1 sequence (Q01776 1-327): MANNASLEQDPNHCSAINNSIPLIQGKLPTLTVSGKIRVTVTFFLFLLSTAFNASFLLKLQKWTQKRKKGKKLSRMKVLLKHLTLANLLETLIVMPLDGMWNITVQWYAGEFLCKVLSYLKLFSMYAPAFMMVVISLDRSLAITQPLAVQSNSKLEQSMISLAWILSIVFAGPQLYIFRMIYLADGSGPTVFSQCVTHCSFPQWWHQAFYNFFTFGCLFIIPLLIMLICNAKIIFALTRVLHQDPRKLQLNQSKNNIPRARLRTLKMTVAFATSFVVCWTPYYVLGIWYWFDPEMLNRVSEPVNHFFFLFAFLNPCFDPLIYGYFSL
Method: To determine if LHRH, when conjugated to gold particles or FNPs, retained its binding affinity to the luteinizing hormone-releasing hormone receptor and its biological activity, the binding of LHRH, LHRH-NP-DOXs, and LHRH-FNP-DOXs to cell surface LHRH receptors was first examined For this purpose, a mouse gonadotrope tumor cell line (LβT2) was used that expresses high levels of high affinity LHRH receptors (82). The LβT2 cells were plated on 6-well plates. After 24 hrs, the cells were transfected with a reporter gene construct, pCRE-luciferase plasmid, as described previously (82). After 24 hrs of transfection, the medium was replaced with serum free medium, followed by incubation for 4 hrs, and then treatment of the cells with various concentrations of LHRH or LHRH-NP-DOXs for 6 hrs. Cells were then lysed and assayed for luciferase activity using a luciferase assay kit (Promega, Madison, Wis.). Binding of LHRH or LHRH-NP-DOX particles was calculated and compared as described previously (82). Experiments were repeated three times for every new preparation.

[3] = tested on: A2780 ovarian tumor cells; test: Uptake of doxorubicin by ovarian tumor cells in vitro (fluorometric); format: cell-based; conditions: 5 nM DOX
Method: To determine the uptake of doxorubicin by ovarian tumor cells in vitro, ovarian tumor cells (A2780) were plated in 6-well plates. After 24 hrs of incubation, the medium was replaced with fresh medium and cells were then treated with PBS, free DOX (DOX concentration=5 nM), DOX-NPs (5 nM DOX), or LHRH-NP-DOXs (5 nM DOX). After 2, 4, and 24 hrs of incubation, cells were rinsed with PBS and scrapped off the plates and centrifuged. The pellets were resuspended in lysis buffer [[…] sucrose, 5 mM TrisHCl, 1 mM MgSO4, 1 mM CaCl2 (pH 7.6)] and homogenized using a polytron homogenizer. A 200:1 dilution of the homogenate from each sample was then transferred in triplicate to 2 ml centrifuge tubes and 100:1 of 10% (v/v) Triton X-100, 200:1 of water, and 1,500:1 of acidified isopropanol (0.75 N HCl) was added. The tubes were vortexed to ensure complete mixing and doxorubicin was extracted overnight at −20° C. The next day, the samples were thawed to room temperature, and then centrifuged at 15,000×g for 20 min. The supernatant was collected. Doxorubicin was measured fluorometrically (EX485 nm/EM590 nm) as described previously (3).

Row | Compound | efficacy on cell death [1] | IC50 [2] [nM] | doxorubicin found in cells compared to LHRH-NP-DOXs ([3]; after 24 hrs) | doxorubicin found in cells ([3]; within 4 hrs)
1 | LHRH-DOX (QHWSYGLRPG; also: doxorubicin conjugate; UniProt P01148 24-33, looked up) | ineffective | – | – | –
2 | CC(C)C[C@H](NC(=O)[C@@H](Cc1c[nH]c2ccccc12)NC(=O)[C@H](Cc1ccc(O)cc1)NC(=O)[C@H](CO)NC(=O)[C@H](Cc1c[nH]c2ccccc12)NC(=O)[C@H](Cc1c[nH]cn1)NC(=O)[C@@H]1CCC(=O)N1)C(=O)N[C@@H](CCCNC(=N)N)C(=O)N1CCC[C@H]1C(=O)NCC(N)=O [LHRH, p-Glu-His-Trp-Ser-Tyr-D-Trp-Leu-Arg-Gly-NH2, reference compound] | ineffective | 0.1 | – | –
3 | COc1cccc2c1C(=O)c1c(O)c3c(c(O)c1C2=O)C[C@@](O)(C(=O)CO)C[C@@H]3O[C@H]1C[C@H](N)[C@H](O)[C@H](C)O1 [DOX, doxorubicin, reference compound] | ineffective | – | significantly lower | no detectable amount
